Patent US20090176817A1, “Method of Treatment of Diarrhea-Predominant Irritable Bowel Syndrome in a Subject” (priority 2005, published 2009)

Test system: diarrhea-predominant IBS subjects
Assay: Study S241.3.006: weekly diary questions on adequate relief
Assay type: in vivo, human
Conditions: for Number of months a subject was a responder: One month (Abdominal pain/discomfort) / Number of months a subject was a responder: One month (Abnormal bowel habits) / Number of months a subject was a responder: One month (IBS symptoms) / Number of months a subject was a responder: Three months (Abdominal pain/discomfort) / Number of months a subject was a responder: Three months (Abnormal bowel habits) / Number of months a subject was a responder: Three months (IBS symptoms) / Number of months a subject was a responder: Two months (Abdominal pain/discomfort) / Number of months a subject was a responder: Two months (Abnormal bowel habits) / Number of months a subject was a responder: Two months (IBS symptoms) / Number of months a subject was a responder: Zero months (Abdominal pain/discomfort) / Number of months a subject was a responder: Zero months (Abnormal bowel habits) / Number of months a subject was a responder: Zero months (IBS symptoms) / Overall responder rate, adequate relief of IBS symptoms / Overall responder rate, adequate relief of abdominal pain/discomfort / Overall responder rate, adequate relief of abnormal bowel habits: three-month treatment period; for Number of months a subject was a responder: One month (Abdominal pain/discomfort) / Number of months a subject was a responder: One month (Abnormal bowel habits) / Number of months a subject was a responder: One month (IBS symptoms) / Number of months a subject was a responder: Three months (Abdominal pain/discomfort) / Number of months a subject was a responder: Three months (Abnormal bowel habits) / Number of months a subject was a responder: Three months (IBS symptoms) / Number of months a subject was a responder: Two months (Abdominal pain/discomfort) / Number of months a subject was a responder: Two months (Abnormal bowel habits) / Number of months a subject was a responder: Two months (IBS symptoms) / Number of months a subject was a responder: Zero months (Abdominal pain/discomfort) / Number of months a subject was a responder: Zero months (Abnormal bowel habits) / Number of months a subject was a responder: Zero months (IBS symptoms): monthly LOCF
Method: The study was conducted in 129 study centers in the United States. At total of 2080 subjects consented to participate, and 711 subjects were randomized. A total of 692 subjects were analyzed for efficacy and 701 subjects were analyzed for safety. Diagnosis and main criteria for inclusion were IBS subjects satisfying the Rome I criteria (1992); the diarrhea predominant sub-population of the Rome II criteria; and a minimum abdominal pain/discomfort, stool frequency and consistency determined during the run-in period. Subjects were treated with cilansetron 2 mg tablets given orally TID or matching placebo tablets given orally TID for 12 weeks double-blind treatment.
The primary efficacy parameter was the number of months that a subject was a responder for IBS symptoms (abdominal pain, abdominal discomfort, abnormal bowel habits) over the 12-week treatment period. A responder for a month (monthly responder) was defined as a subject who answered the weekly question with “yes” at least twice for that month.
Studies S24 1.3.OO6, S24 1.3.0 1 1, and S24 1.3.009 used the following efficacy measurements: • The subjects answered the following three questions with “yes” or “no” using a phone diary at the end of each week: • a) During the last week, did you experience adequate relief of your IBS symptoms, such as abdominal pain, abdominal discomfort, abnormal bowel habits? • b) During the last week, did you experience adequate relief of your abdominal pain and/or discomfort? • c) During the last week, did you experience adequate relief of your abnormal bowel habits? • The subjects rated the following symptoms using the phone diary at the end of each day: • abdominal pain/discomfort (five-point scale); • stool consistency (seven-point Bristol Stool Scale); • stool frequency (number of bowel movements each day); • urgency (five-point scale); • straining (yes or no); • feeling of incomplete defecation (yes or no); • bloating or feeling of abdominal distension (five-point scale). • In Studies S241 A006 and S241.3.009, subjects completed the IBS-QOL Survey at Baseline (Day 1) and at the end of treatment. In Study S24 1.3.0 1 1, subjects completed the IBS-QOL Survey at Baseline (Day 1), at the end of the three-month treatment period, and at the end of rerandomized treatment.
In all three pivotal efficacy studies, the primary and main secondary efficacy parameters were based on the weekly diary questions on adequate relief and included the following: • 1. Number of months (one month equals four weeks) that a subject was a responder for the weekly diary questions on adequate relief. A responder for a month (monthly responder) was defined as a subject who answered the weekly question with “yes” at least twice for that month. For Studies S241.3.006 and S241.3.011, the primary efficacy parameter was the number of months that a subject was a responder for IBS symptoms during the 12-week treatment period. The two main secondary efficacy parameters were the number of months that a subject was a responder for abdominal pain/discomfort and abnormal bowel habits during the 12-week treatment period. For Study S241.3.009, the number of months that a subject was a responder for the weekly diary questions on adequate relief during Months 1 to 3 (the first 12 weeks) and Months 1 to 6 (24-week) was an additional key secondary efficacy parameter. • 2. Overall responder rate for the weekly diary questions on adequate relief. A responder was defined as a subject who answered the weekly question with “yes” for at least half of the answers available with a minimum of four weeks treatment duration. If a subject had less than four weeks treatment duration, the subject was considered a non-responder. The overall responder rate was the percentage of responders within a treatment group. For Study S241.3.009, the primary efficacy parameter was the overall responder rate for IBS symptoms during the 26-week treatment period. […]

[1] = Duration of IBS: ≦24 months, ITT, 2 mg TID
[2] = Female subjects, observed case, ITT, 2 mg TID
[3] = Male subjects, observed case, ITT, 2 mg TID

SMILES: Cc1nccn1C[C@H]1CCc2c(c3cccc4c3n2CCC4)C1=O [Cilansetron, (R)-(−)-4,5,6,8,9,10-hexahydro-10-[(2-methyl-1H-imidazol-1-yl)methyl]-11H-pyrido-[3,2,1-jk]-carbazol-11-one]
- Number of subjects who were responders during the three-month treatment period: Adequate relief of abnormal bowel habits (Duration of IBS: ≦24 months, 2 mg TID, observed case, ITT): 27 (53) n (%)
- Number of months a subject was a responder: One month (Abdominal pain/discomfort) [1]: 7 (14) n (%)
- Number of months a subject was a responder: One month (Abnormal bowel habits) [1]: 4 (8) n (%)
- Number of months a subject was a responder: One month (IBS symptoms) [1]: 5 (10) n (%)
- Number of months a subject was a responder: Three months (Abdominal pain/discomfort) [1]: 25 (49) n (%)
- Number of months a subject was a responder: Three months (Abnormal bowel habits) [1]: 22 (43) n (%)
- Number of months a subject was a responder: Three months (IBS symptoms) [1]: 19 (37) n (%)
- Number of months a subject was a responder: Two months (Abdominal pain/discomfort) [1]: 4 (8) n (%)
- Number of months a subject was a responder: Two months (Abnormal bowel habits) [1]: 7 (14) n (%)
- Number of months a subject was a responder: Two months (IBS symptoms) [1]: 8 (16) n (%)
- Number of months a subject was a responder: Zero months (Abdominal pain/discomfort) [1]: 15 (29) n (%)
- Number of months a subject was a responder: Zero months (Abnormal bowel habits) [1]: 18 (35) n (%)
- Number of months a subject was a responder: Zero months (IBS symptoms) [1]: 19 (37) n (%)
- Number of months a subject was a responder: One month (Abdominal pain/discomfort) (Female subjects, ITT, 2 mg TID): 32 (13) n (%)
- Number of months a subject was a responder: One month (Abnormal bowel habits) (Female subjects, ITT, 2 mg TID): 27 (11) n (%)
- Number of months a subject was a responder: One month (IBS symptoms) (Female subjects, ITT, 2 mg TID): 36 (15) n (%)
- Number of months a subject was a responder: Three months (Abdominal pain/discomfort) (Female subjects, ITT, 2 mg TID): 103 (42) n (%)
- Number of months a subject was a responder: Three months (Abnormal bowel habits) (Female subjects, ITT, 2 mg TID): 104 (43) n (%)
- Number of months a subject was a responder: Three months (IBS symptoms) (Female subjects, ITT, 2 mg TID): 94 (39) n (%)
- Number of months a subject was a responder: Two months (Abdominal pain/discomfort) (Female subjects, ITT, 2 mg TID): 38 (16) n (%)
- Number of months a subject was a responder: Two months (Abnormal bowel habits) (Female subjects, ITT, 2 mg TID): 37 (15) n (%)
- Number of months a subject was a responder: Two months (IBS symptoms) (Female subjects, ITT, 2 mg TID): 38 (16) n (%)
- Number of months a subject was a responder: Zero months (Abdominal pain/discomfort) (Female subjects, ITT, 2 mg TID): 70 (29) n (%)
- Number of months a subject was a responder: Zero months (Abnormal bowel habits) (Female subjects, ITT, 2 mg TID): 75 (31) n (%)
- Number of months a subject was a responder: Zero months (IBS symptoms) (Female subjects, ITT, 2 mg TID): 75 (31) n (%)
- Overall responder rate, adequate relief of IBS symptoms [2]: 127 (52) n (%)
- Overall responder rate, adequate relief of abdominal pain/discomfort [2]: 134 (55) n (%)
- Overall responder rate, adequate relief of abnormal bowel habits [2]: 135 (56) n (%)
- Number of months a subject was a responder: One month (Abdominal pain/discomfort) (Male subjects, ITT, 2 mg TID): 10 (10) n (%)
- Number of months a subject was a responder: One month (Abnormal bowel habits) (Male subjects, ITT, 2 mg TID): 13 (13) n (%)
- Number of months a subject was a responder: One month (IBS symptoms) (Male subjects, ITT, 2 mg TID): 9 (9) n (%)
- Number of months a subject was a responder: Three months (Abdominal pain/discomfort) (Male subjects, ITT, 2 mg TID): 36 (36) n (%)
- Number of months a subject was a responder: Three months (Abnormal bowel habits) (Male subjects, ITT, 2 mg TID): 25 (25) n (%)
- Number of months a subject was a responder: Three months (IBS symptoms) (Male subjects, ITT, 2 mg TID): 25 (25) n (%)
- Number of months a subject was a responder: Two months (Abdominal pain/discomfort) (Male subjects, ITT, 2 mg TID): 9 (9) n (%)
- Number of months a subject was a responder: Two months (Abnormal bowel habits) (Male subjects, ITT, 2 mg TID): 15 (15) n (%)
- Number of months a subject was a responder: Two months (IBS symptoms) (Male subjects, ITT, 2 mg TID): 15 (15) n (%)
- Number of months a subject was a responder: Zero months (Abdominal pain/discomfort) (Male subjects, ITT, 2 mg TID): 46 (46) n (%)
- Number of months a subject was a responder: Zero months (Abnormal bowel habits) (Male subjects, ITT, 2 mg TID): 48 (48) n (%)
- Number of months a subject was a responder: Zero months (IBS symptoms) (Male subjects, ITT, 2 mg TID): 52 (51) n (%)
- Overall responder rate, adequate relief of IBS symptoms [3]: 41 (41) n (%)
- Overall responder rate, adequate relief of abdominal pain/discomfort [3]: 45 (45) n (%)
- Overall responder rate, adequate relief of abnormal bowel habits [3]: 39 (39) n (%)
- Overall responder rate, IBS symptoms (females): 52%
- Overall responder rate, abdominal pain/discomfort (females): 55%
- Overall responder rate, abnormal bowel habits (females): 56%
- Overall responder rate, IBS symptoms (males): 41%
- Overall responder rate, abdominal pain/discomfort (males): 45%
- Overall responder rate, abnormal bowel habits (males): 39%
- Overall responder rate, abdominal pain/discomfort (non-Caucasians): 48%
